Measurements published in PubChem BioAssay (NCI).
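How tested: cells in 96-well plates exposed to compound for 48 hours at five concentrations. TGI: concentration producing complete growth inhibition.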

Legend:
Assay in all cases: NCI tumour cell line growth inhibition, 48 h
[1] = test system: SF-268 CNS
[2] = test system: COLO 205 colon
[3] = test system: SK-MEL-2 melanoma
[4] = test system: NCI-H460 lung
[5] = test system: UO-31 renal
[6] = test system: DMS 114 small cell lung
[7] = test system: SK-MEL-28 melanoma
[8] = test system: EKVX NSCLC
[9] = test system: SK-OV-3 ovarian
[10] = test system: MCF7 breast
[11] = test system: OVCAR-8 ovarian
[12] = test system: CCRF-CEM leukemia
[13] = test system: NCI-H226 lung
[14] = test system: SNB-78 CNS
[15] = test system: UACC-257 melanoma
[16] = test system: KM12 colon
[17] = test system: SK-MEL-5 melanoma
[18] = test system: HOP-92 NSCLC
[19] = test system: SNB-75 CNS
[20] = test system: DMS 273 small cell lung
[21] = test system: MALME-3M melanoma
[22] = test system: HOP-62 NSCLC
[23] = test system: DLD-1 colon
[24] = test system: IGROV1 ovarian
[25] = test system: CAKI-1 renal
[26] = test system: OVCAR-3 ovarian
[27] = test system: RPMI-8226 leukemia
[28] = test system: HCC-2998 colon
[29] = test system: KM20L2 colon
[30] = test system: UACC-62 melanoma
[31] = test system: HL-60(TB) leukemia
[32] = test system: U251 CNS
[33] = test system: A549 NSCLC
[34] = test system: M19-MEL melanoma
[35] = test system: SN12C renal
[36] = test system: HCT-116 colon
[37] = test system: OVCAR-5 ovarian
[38] = test system: MOLT-4 leukemia
[39] = test system: SF-539 CNS
[40] = test system: XF 498 CNS
[41] = test system: P388 leukemia
[42] = test system: NCI-H23 lung
[43] = test system: P388/ADR leukemia
[44] = test system: A498 renal
[45] = test system: SF-295 CNS
[46] = test system: HCT-15 colon
[47] = test system: LOX IMVI melanoma
[48] = test system: SN12K1 renal
[49] = test system: SW-620 colon
[50] = test system: SNB-19 CNS
[51] = test system: NCI/ADR-RES ovarian
[52] = test system: NCI-H522 lung
[53] = test system: HT29 colon
[54] = test system: HOP-18 NSCLC
[55] = test system: RXF 393 renal
[56] = test system: OVCAR-4 ovarian
[57] = test system: K-562 leukemia
[58] = test system: MDA-MB-231 breast
[59] = test system: SR leukemia
[60] = test system: MDA-N
[61] = test system: HS 578T breast
[62] = test system: DU-145 prostate
[63] = test system: LXFL 529 NSCLC
[64] = test system: BT-549 breast
[65] = test system: T-47D breast
[66] = test system: M14 melanoma
[67] = test system: MDA-MB-435
[68] = test system: RXF-631 renal
[69] = test system: PC-3 prostate
[70] = test system: 786-0 renal

## O=C1C=CC2OC(c3ccccc3)C(O)C2O1 (configuration not stated)
[1]
  TGI: 15.6 µM
[2]
  TGI: 11 µM
[3]
  TGI: 6.63 µM
[4]
  TGI: 16.2 µM
[5]
  TGI: 21.1 µM
[6]
  TGI: 14.7 µM
[7]
  TGI: 11.8 µM
[8]
  TGI: 15.4 µM
[9]
  TGI: 39.5 µM
[10]
  TGI: 16.8 µM
[11]
  TGI: 20.2 µM
[12]
  TGI: 11.6 µM
[13]
  TGI: 5.2 µM
[14]
  TGI: 46.3 µM
[15]
  TGI: 18.5 µM
[16]
  TGI: 17.3 µM
[17]
  TGI: 17.1 µM
[18]
  TGI: 10.2 µM
[19]
  TGI: 31 µM
[20]
  TGI: 18.2 µM
[21]
  TGI: 11.3 µM
[22]
  TGI: 26 µM
[23]
  TGI: 13.9 µM
[24]
  TGI: 29.1 µM
[25]
  TGI: 13 µM
[26]
  TGI: 10.7 µM
[27]
  TGI: 7.65 µM
[28]
  TGI: 10.9 µM
[29]
  TGI: 23.8 µM
[30]
  TGI: 20.9 µM
[31]
  TGI: 3.29 µM
[32]
  TGI: 22.4 µM
[33]
  TGI: 14.5 µM
[34]
  TGI: 30.8 µM
[35]
  TGI: 22.9 µM
[36]
  TGI: 10.6 µM
[37]
  TGI: 21.5 µM
[38]
  TGI: 4.41 µM
[39]
  TGI: 14.1 µM
[40]
  TGI: 10.1 µM
[41]
  TGI: 6.53 µM
[42]
  TGI: 12.6 µM
[43]
  TGI: 7.63 µM
[44]
  TGI: 5.85 µM
[45]
  TGI: 19.6 µM
[46]
  TGI: 14.4 µM
[47]
  TGI: 8.18 µM
[48]
  TGI: 14.9 µM
[49]
  TGI: 9.87 µM
[50]
  TGI: 30.2 µM
[51]
  TGI: 15.2 µM
[52]
  TGI: 4 µM
[53]
  TGI: 35.2 µM
[54]
  TGI: 1.81 µM
[55]
  TGI: 4.47 µM
[56]
  TGI: 17.9 µM
[57]
  TGI: 59.7 µM

## CN(C)CCN1C(=O)c2cccc3cc([N+](=O)[O-])cc(c23)C1=O
[1]
  TGI: 3.12 µM
[2]
  TGI: 9.56 µM
[3]
  TGI: 3.14 µM
[58]
  TGI: 14.6 µM
[59]
  TGI: 97 µM
[4]
  TGI: 0.384 µM
[6]
  TGI: 0.811 µM
[7]
  TGI: 6.85 µM
[8]
  TGI: 2.68 µM
[60]
  TGI: 10.5 µM
[61]
  TGI: 4.65 µM
[9]
  TGI: 0.806 µM
[10]
  TGI: 0.743 µM
[11]
  TGI: 2.02 µM
[12]
  TGI: 0.798 µM
[13]
  TGI: 0.436 µM
[14]
  TGI: 15 µM
[15]
  TGI: 2.13 µM
[16]
  TGI: 4.28 µM
[62]
  TGI: > 100 µM
[17]
  TGI: 1.37 µM
[63]
  TGI: 2.8 µM
[18]
  TGI: 1.12 µM
[19]
  TGI: 1.05 µM
[20]
  TGI: 0.557 µM
[64]
  TGI: 7.62 µM
[21]
  TGI: 1.84 µM
[22]
  TGI: 0.779 µM
[65]
  TGI: 29.6 µM
[23]
  TGI: 28.4 µM
[24]
  TGI: 4.49 µM
[25]
  TGI: 1.76 µM
[26]
  TGI: 6.27 µM
[27]
  TGI: 10.2 µM
[28]
  TGI: 3.56 µM
[29]
  TGI: 5.63 µM
[30]
  TGI: 1.03 µM
[31]
  TGI: > 45.3 µM
[32]
  TGI: 2 µM
[33]
  TGI: 0.397 µM
[34]
  TGI: 1.84 µM
[35]
  TGI: 1.69 µM
[36]
  TGI: 6.7 µM
[66]
  TGI: 2.14 µM
[37]
  TGI: 5.24 µM
[38]
  TGI: 2.04 µM
[39]
  TGI: 1.32 µM
[40]
  TGI: 2 µM
[42]
  TGI: 1.24 µM
[44]
  TGI: 0.386 µM
[67]
  TGI: 4.66 µM
[45]
  TGI: 1.38 µM
[46]
  TGI: 4.2 µM
[68]
  TGI: 3.62 µM
[47]
  TGI: 0.806 µM
[49]
  TGI: 3.7 µM
[50]
  TGI: 2.12 µM
[69]
  TGI: 3.49 µM
[52]
  TGI: 2.12 µM
[53]
  TGI: 2.8 µM
[54]
  TGI: 6.4 µM
[70]
  TGI: 8.1 µM
[55]
  TGI: 0.923 µM
[56]
  TGI: 6.37 µM
[57]
  TGI: 26.5 µM
